Series [1] has as its system HepG2 cells. Briefly: Cytotoxicity in mammalian HepG2 cell line. As to conditions: for % Max response: HepG2.
Series [2] deals with P. falciparum strain 3D7 gametocytes. The series can be described thus: alamarBlue gametocyte viability assay, strain 3D7. For orientation: Resazurin is reduced to fluorescent resorufin, in cell work by metabolically active cells.
Series [3] relates to P. falciparum strain HB3 gametocytes. Briefly: alamarBlue gametocyte viability assay, strain HB3.
Series [4] concerns P. falciparum strain Dd2 gametocytes. The series can be described thus: alamarBlue gametocyte viability assay, strain Dd2.
Series [5] has as its system Asexual parasites of P. falciparum strain 3D7. The series can be described thus: SYBR Green viability assay on asexual parasites. Type of series: cell-based, Plasmodium falciparum. As to conditions: read-out: IC50 in viability assay using asexual parasites.
Series [6] deals with Plasmodium berghei ANKA. Briefly: Malaria mouse model of gametocyte transmission to mosquitoes (oocyst count). Type of series: in vivo. As to conditions: mice, Anopheles stephensi.
Series [7] has as its system Dd2 asexual parasites. As to conditions: compared to 3D7; ref [27]; cited from earlier work.
[8] abbreviates: Table 2, Inactive = no significant activity at highest tested concentration (46 μM).
Setting [9] is: Table 4, Inactive = no significant activity at highest tested concentration (46 μM).
Where [10] appears, read: read-out: 3D7-IC50, Table 3, 11 concentrations, 1:3 dilution, three times.
The mark [11] stands for this setting: read-out: Gametocyte IC50, mean of at least 3 independent experiments, P. falciparum 3D7 gametocyte.
[12] abbreviates: read-out: HB3-IC50, Table 3, 11 concentrations, 1:3 dilution, three times.
The mark [13] stands for this setting: read-out: Dd2-IC50, Table 3, 11 concentrations, 1:3 dilution, three times.
Setting [14] is: Plasmodium falciparum, 3D7, read-out: 3D7-IC50.
[15] abbreviates: Plasmodium falciparum, DD2, read-out: IC50 against Dd2 gametocytes.
Where [16] appears, read: read-out: IC50 (μM) in HepG2, Table 2, Inactive = no significant activity at highest tested concentration (46 μM).
Where [17] appears, read: read-out: IC50 (μM) in HepG2 cells, Table 4, Inactive = no significant activity at highest tested concentration (46 μM).

Read-outs that look alike come from different tables or passages of the source.

Usually IC50 stands for the concentration needed to halve the response being measured.

In the case of `COc1ncc(-c2ccc3nccc(-c4ccnnc4)c3c2)cc1NS(=O)(=O)c1ccc(F)cc1F` [GSK-458], the “% Max response” value in series [1] (Table 2) and in series [1] (Table 4) was 33% in each case. Besides, the “IC50 (μM) in HepG2” value in series [1] (setting [8]) was “Inactive”. In addition, the “IC50 (μM) in HepG2 cells” value in series [1] (setting [9]) is “Inactive”. Further, the IC50 in series [2] (setting [10]) worked out at 935 nM; in series [2] (setting [11]) it was 935 nM; in series [3] (setting [12]), 332 nM; in series [4] (setting [13]) it was 1480 nM.
Take `CN(C)c1ccc2nc3ccc(=[N+](C)C)cc-3sc2c1` [Methylene blue]: the “% Max response” value in series [1] (Table 4) is recorded as −20%. Also, the “IC50 (μM) in HepG2 cells” value in series [1] (setting [9]) is on record as “Inactive”. Moreover, the IC50 in series [2] (setting [14]) was 300 nM; in series [3] (Plasmodium falciparum, HB3, read-out: HB3-IC50) it was 935 nM; in series [4] (Plasmodium falciparum, DD2, read-out: Dd2-IC50, Table 3, 11 concentrations, 1:3 dilution, three times), 526 nM; in series [4] (setting [15]), 526 nM.
Take `Cc1[nH]c2ccccc2c1CCNCc1ccc(/C=C/C(=O)NO)cc1` [Panobinostat]: the IC50 in series [1] (Homo sapiens, HepG2, read-out: IC50 (μM) in HepG2 cells) worked out at 0.372 µM; in series [2] (setting [14]), 900 nM; in series [3] (Plasmodium falciparum, HB3, read-out: IC50 against HB3 gametocytes), 118 nM; in series [4] (setting [15]) it was 148 nM. The “% Max response” value in series [1] (Table 4) is −74%. Besides, in series [3] (gametocytes), the “fold more potent against HB3 compared to 3D7” value is 7.9 fold. For the same molecule, the “times more potent against Dd2 compared to 3D7” value in series [4] (gametocytes) is 6.3 times.
In the case of `C=CC1CN2CCC1CC2C(O)c1ccnc2ccc(OC)cc12.C=CC1CN2CCC1CC2C(O)c1ccnc2ccc(OC)cc12.O=S(=O)(O)O` (stereo not drawn) [Quinine hemisulfate], the “% Max response” value in series [1] (Table 2) and in series [1] (Table 4) was 2% in each case. The “IC50 (μM) in HepG2” value in series [1] (setting [8]) is listed as “Inactive”. For the same molecule, the “IC50 (μM) in HepG2 cells” value in series [1] (setting [9]) was “Inactive”. In addition, the IC50 is 300 nM in series [2] (setting [10]), 345 nM in series [2] (setting [11]), 235 nM in series [3] (setting [12]) and 83 nM in series [4] (setting [13]).
Turning to `Nc1ccc(-c2ccc3ncc4ccc(=O)n(-c5cccc(C(F)(F)F)c5)c4c3c2)cn1` [Torin 2], the IC50 in series [5] worked out at 2.75 nM; in series [1] (setting [16]), 9.35 µM; in series [1] (setting [17]) it was 9.35 µM; in series [2] (setting [11]), 8 nM; in series [3] (setting [12]), 15 nM; in series [4] (setting [13]), 12 nM. Further, the figures for the “oocyst production in mosquitoes” value in series [6] (single 4 mg/kg dose i.v.), in series [6] (single dose of 2 mg/kg i.v.) and in series [6] (two 4 mg/kg doses i.v.) were “almost completely eliminated”, “significantly reduced” and “completely blocked”, respectively. In addition, the “% Max response” value in series [1] (Table 2) and in series [1] (Table 4) was −46% throughout. For the same molecule, the “cytotoxicity in HepG2 cells” value in series [1] (at the highest tested concentration (46 μM)) is “partial cytotoxicity”.
Turning to `CC1=C(CO)C(=O)O[C@@H]([C@@H](C)[C@H]2CC[C@H]3[C@@H]4C[C@H]5O[C@]56[C@@H](O)C=CC(=O)[C@]6(C)[C@H]4CC[C@]23C)C1` [Withaferin A], the “% Max response” value in series [1] (Table 2) and in series [1] (Table 4) was −80% each time. Further, the IC50 in series [1] (setting [16]) worked out at 9.35 µM; in series [1] (setting [17]), 9.35 µM; in series [2] (setting [10]), 300 nM; in series [2] (setting [11]) it was 372 nM; in series [3] (setting [12]), 1330 nM; in series [4] (setting [13]), 372 nM.
Regarding `CCN(CC)CCCC(C)Nc1ccnc2cc(Cl)ccc12` (stereo not drawn) [chloroquine], the “fold less potent against Dd2 asexual parasites” value in series [7] is recorded as 10 fold. Besides, the “reduction of potency against Dd2 gametocytes compared to 3D7” value in series [4] came out at 3.7 fold.
With Monensin sodium, the “IC50 (μM) in HepG2” value in series [1] is reported as “Inactive”. Besides, in series [1], the “IC50 (μM) in HepG2 cells” value is listed as “Inactive”. The “% Max response” value in series [1] (Table 2) and in series [1] (Table 4) was 40% throughout. The IC50 in series [2] (setting [10]) worked out at 200 nM; in series [2] (setting [11]), 254 nM; in series [3] (setting [12]), 264 nM; in series [4] (setting [13]), 372 nM.
For the molecule Zinc pyrithione, the “% Max response” value in series [1] (Table 2) and in series [1] (Table 4) was −99% throughout. Besides, the IC50 was 2.15 µM in series [1] (setting [16]); 2.15 µM in series [1] (setting [17]); 93 nM in series [2] (setting [11]); 59 nM in series [3] (setting [12]); 59 nM in series [4] (setting [13]).

The values above are taken from patent US20160264570A1, “METHOD OF BLOCKING TRANSMISSION OF MALARIAL PARASITE” (THE UNITED STATES OF AMERICA, AS REPRESENTED BY THE …, priority 2013, published 2016).
